The text below walks through data of patent US6936584B1, “Mixed amylin activity compounds” (Amylin Pharmaceuticals, Inc., priority 1998, dated 2005).

One assay concerns the target T1, CGRP receptors (Homo sapiens, UniProt O60894+Q16602).
T1 construct: SK-N-MC cells (ATCC No. HTB-10) were homogenized in 50 mM Hepes buffer; host or cells: SK-N-MC human neuroblastoma cells
In words: Binding to membranes from SK-N-MC cells (CGRP receptors), displacement of [125I]human-CGRP. The conditions noted are these: read-out: Receptor IC50 in nM [mean ± SEM (n)] CGRP. In general terms: In a radioligand displacement assay an active substance lowers the binding of a labelled ligand.

The target in assay [1] is T2, calcitonin receptors (Homo sapiens, UniProt P30988).
T2 sequence (P30988 25-474): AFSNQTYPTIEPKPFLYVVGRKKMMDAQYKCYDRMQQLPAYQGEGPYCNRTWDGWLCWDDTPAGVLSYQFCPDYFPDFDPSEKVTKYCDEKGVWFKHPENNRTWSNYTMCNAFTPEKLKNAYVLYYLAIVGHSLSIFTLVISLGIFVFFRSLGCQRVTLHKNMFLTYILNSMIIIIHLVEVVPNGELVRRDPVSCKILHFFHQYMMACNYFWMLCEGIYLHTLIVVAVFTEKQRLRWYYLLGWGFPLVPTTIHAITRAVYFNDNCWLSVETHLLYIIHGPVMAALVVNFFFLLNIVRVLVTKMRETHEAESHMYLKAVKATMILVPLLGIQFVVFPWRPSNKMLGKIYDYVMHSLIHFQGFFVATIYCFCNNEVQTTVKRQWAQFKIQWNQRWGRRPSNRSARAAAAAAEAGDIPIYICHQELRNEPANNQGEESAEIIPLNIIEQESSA
In words: Adenyl cyclase stimulation, cyclic AMP accumulation in MCF7-7 cells. Type of assay: cell-based.

The next assay has as its target T3, amylin receptors (Rattus norvegicus, UniProt P32214).
T3 sequence (P32214 25-516): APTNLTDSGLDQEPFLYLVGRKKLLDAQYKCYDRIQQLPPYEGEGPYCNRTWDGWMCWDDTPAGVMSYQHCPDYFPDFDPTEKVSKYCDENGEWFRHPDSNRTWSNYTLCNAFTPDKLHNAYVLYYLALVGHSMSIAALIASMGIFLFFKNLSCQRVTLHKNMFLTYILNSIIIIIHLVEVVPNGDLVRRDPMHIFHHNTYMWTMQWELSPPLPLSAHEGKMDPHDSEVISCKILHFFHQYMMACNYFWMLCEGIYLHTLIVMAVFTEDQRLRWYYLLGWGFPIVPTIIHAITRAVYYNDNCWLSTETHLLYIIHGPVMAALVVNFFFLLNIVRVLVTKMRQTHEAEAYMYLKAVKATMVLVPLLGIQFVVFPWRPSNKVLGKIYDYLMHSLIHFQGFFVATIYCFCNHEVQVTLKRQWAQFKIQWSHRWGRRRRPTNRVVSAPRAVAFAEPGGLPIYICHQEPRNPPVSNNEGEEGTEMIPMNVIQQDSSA
In words: Binding to rat nucleus accumbens membranes (amylin receptors), displacement of 125I-BH-rat amylin. The note with it: read-out: Receptor IC50 in nM [mean ± SEM (n)] Amylin.

The target in assay [2] is T2, calcitonin receptors. The assay can be described thus: Binding to membranes from T47D cells (calcitonin receptors), displacement of [125I]salmon calcitonin. Set-up: Membranes were prepared from confluent cultures of T47D cells; host or cells: T47D human breast carcinoma cells. The note with it: for IC50: T47D membranes, mean ± SEM (n), read-out: Receptor IC50 in nM [mean ± SEM (n)] Calcitonin; for affinity for calcitonin receptors compared with amylin receptors: calcitonin (T47D) versus amylin (nucleus accumbens) receptors.

Assay [3] in a line: Effect on plasma glucose, lactate and calcium levels in anesthetized rats. Type of assay: in vivo, rat. The conditions noted are these: 100 μg subcutaneous.
Assay [4] relates to effects of rat amylin on plasma levels of glucose, lactate and calcium. The assay can be described thus: Effect on plasma glucose, lactate, calcium and mean arterial pressure in the presence of amylin, anesthetized rats. The format is in vivo.
The test system of the next assay is isolated soleus muscle. The conditions noted are these: insulin 7.1 nM.
Another assay deals with gastric emptying in rats. The assay can be described thus: Phenol red gastric emptying assay in conscious rats. The note with it: conscious rat model; adrenomedullin at highest doses (100 μg).
Assay [5] has as its target T4, human calcitonin receptors (T47D and MCF7-7 breast carcinoma cells) (human, UniProt P30988 25-474).
T4 construct: whole, on cells; also called calcitonin (T47D) receptors
T4 sequence (looked up): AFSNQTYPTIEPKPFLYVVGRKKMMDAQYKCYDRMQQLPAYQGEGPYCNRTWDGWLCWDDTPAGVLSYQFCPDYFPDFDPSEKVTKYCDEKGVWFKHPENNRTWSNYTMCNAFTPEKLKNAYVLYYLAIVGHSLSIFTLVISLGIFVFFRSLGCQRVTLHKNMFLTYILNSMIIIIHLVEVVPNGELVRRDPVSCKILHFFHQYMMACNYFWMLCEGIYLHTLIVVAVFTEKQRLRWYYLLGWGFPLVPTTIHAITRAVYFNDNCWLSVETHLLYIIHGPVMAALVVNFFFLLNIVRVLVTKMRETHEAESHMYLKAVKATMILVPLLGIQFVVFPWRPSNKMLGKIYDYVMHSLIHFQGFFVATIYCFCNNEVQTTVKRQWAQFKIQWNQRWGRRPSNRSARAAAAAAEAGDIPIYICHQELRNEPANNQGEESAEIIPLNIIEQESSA
In words: radioligand Kd used to derive Ki, T47D cell membranes.

Assay [6] concerns the target T4, human calcitonin receptors (T47D and …). In words: cell-based or functional assay.
Assay [7] addresses T5, rat calcitonin C1a receptor (rat, UniProt P32214 25-516).
T5 sequence (looked up): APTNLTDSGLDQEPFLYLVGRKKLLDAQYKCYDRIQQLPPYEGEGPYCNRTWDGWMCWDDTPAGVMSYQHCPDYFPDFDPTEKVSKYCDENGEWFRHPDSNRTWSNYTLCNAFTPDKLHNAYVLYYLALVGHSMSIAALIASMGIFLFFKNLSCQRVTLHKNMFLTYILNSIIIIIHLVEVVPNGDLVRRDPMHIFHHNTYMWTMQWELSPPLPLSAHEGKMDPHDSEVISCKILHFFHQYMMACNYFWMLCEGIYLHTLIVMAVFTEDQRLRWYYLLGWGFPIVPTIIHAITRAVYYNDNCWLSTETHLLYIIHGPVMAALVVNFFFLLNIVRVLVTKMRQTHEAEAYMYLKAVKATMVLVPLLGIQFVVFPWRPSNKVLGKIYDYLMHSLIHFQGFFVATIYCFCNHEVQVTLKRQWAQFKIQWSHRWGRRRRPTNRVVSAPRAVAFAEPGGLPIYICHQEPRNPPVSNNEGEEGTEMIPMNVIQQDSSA
The assay can be described thus: cell-based or functional assay.

In assay [8] the target is T6, human CGRP receptors (SK-N-MC neuroblastoma cells) (human, UniProt Q16602 23-461; O60894 27-148).
T6 construct: whole, on cells; also called CGRP (SK-N-MC) receptors
T6 sequence (Q16602 23-461, chain 1 of 2): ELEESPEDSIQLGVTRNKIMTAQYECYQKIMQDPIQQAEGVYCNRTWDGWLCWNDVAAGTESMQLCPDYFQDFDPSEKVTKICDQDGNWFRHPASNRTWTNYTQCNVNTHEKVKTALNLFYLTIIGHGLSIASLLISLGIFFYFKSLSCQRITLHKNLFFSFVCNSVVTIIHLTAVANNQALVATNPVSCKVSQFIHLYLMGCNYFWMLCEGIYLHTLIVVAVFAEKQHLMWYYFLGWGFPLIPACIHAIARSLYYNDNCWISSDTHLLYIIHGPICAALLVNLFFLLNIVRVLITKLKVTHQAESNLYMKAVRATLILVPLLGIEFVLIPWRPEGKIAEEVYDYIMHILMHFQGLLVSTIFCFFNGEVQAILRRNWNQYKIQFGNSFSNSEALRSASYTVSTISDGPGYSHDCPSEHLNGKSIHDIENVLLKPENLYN
T6 sequence (O60894 27-148, chain 2 of 2): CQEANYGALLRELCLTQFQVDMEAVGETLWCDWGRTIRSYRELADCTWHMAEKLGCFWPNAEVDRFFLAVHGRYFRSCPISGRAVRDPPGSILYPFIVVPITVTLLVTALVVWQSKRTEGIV
In words: radioligand competition, [125I]human CGRP on SK-N-MC cell membranes.

Assay [9] concerns the target T4, human calcitonin receptors (T47D and …). The assay can be described thus: radioligand competition, [125I]salmon calcitonin on T47D cell membranes.
The target of assay [10] is T6, human CGRP receptors (SK-N-MC …). In words: radioligand competition, SK-N-MC membranes against rat nucleus accumbens membranes.
Assay [11] concerns the target T7, amylin receptors of rat nucleus accumbens membranes (rat).
T7 chain 1: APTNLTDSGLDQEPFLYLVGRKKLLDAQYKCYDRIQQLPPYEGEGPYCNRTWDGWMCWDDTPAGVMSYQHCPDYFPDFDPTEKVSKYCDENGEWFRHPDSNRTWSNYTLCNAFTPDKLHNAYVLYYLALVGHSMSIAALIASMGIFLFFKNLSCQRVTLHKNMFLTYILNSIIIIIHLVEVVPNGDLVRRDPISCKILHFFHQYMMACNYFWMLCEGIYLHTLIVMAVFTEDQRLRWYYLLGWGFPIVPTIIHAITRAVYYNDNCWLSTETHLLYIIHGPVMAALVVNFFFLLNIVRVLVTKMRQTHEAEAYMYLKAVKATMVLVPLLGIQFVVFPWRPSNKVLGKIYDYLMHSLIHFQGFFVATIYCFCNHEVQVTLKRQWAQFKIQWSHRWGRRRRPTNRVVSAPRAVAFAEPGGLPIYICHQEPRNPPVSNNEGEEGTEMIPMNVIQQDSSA
T7 chain 2: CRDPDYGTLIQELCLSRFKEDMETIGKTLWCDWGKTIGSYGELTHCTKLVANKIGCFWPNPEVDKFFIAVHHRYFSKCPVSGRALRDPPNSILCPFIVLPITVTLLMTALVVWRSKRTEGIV
In words: radioligand competition, 125I-BH-rat amylin on rat nucleus accumbens membranes.

Where [12] appears, read: intravenous preinfusion of test compound, then rat amylin 50 μg bolus + 50 μg/hour, versus saline preinfusion.

“Also recorded” adds a separate entry of the source. Ends that are not written are not given here. * marks the point of attachment. 125I = iodine-125 radiolabel, [125I]*

T1 sequence (Q16602 23-461): as the sequence (Q16602 23-461, chain 1 of 2) above
T1 sequence (O60894 27-148 partner): as the sequence (O60894 27-148, chain 2 of 2) above

What is called IC50 is the concentration that inhibits the measured activity by half. Turning to “LSTAVLGRLSQELHRLQTYPRTNTGSNTY [Compound 6]”, the IC50 on CGRP receptors is > 10000 nM; at amylin receptors, 18.6 ± 5.3 nM; at calcitonin receptors [2], 0.56 nM. Further, the “fold less potent than human calcitonin in stimulating adenyl cyclase activity” value on calcitonin receptors [1] is listed as 80 fold. In addition, the EC50 at calcitonin receptors [1] (read-out: EC50 cyclic AMP accumulation / adenylyl cyclase activity) turned out to be 34 nM. The “affinity for calcitonin receptors compared with amylin receptors” value at calcitonin receptors [2] was “greater affinity for calcitonin receptors than for amylin receptors”.

For “4-methylpentanoyl-Ser-Thr-Ala-Val-Leu-Aib-Lys(For)-Leu-Ser-Gln-Glu-Leu-Aib-Lys(For)-Leu-Gln-Thr-Tyr-Pro-Arg-Thr-Asn-Thr-Gly-Ser-Gly-Thr-Pro [Compound 2]”, on calcitonin receptors [1], the “fold less potent than human calcitonin in stimulating adenyl cyclase activity” value is recorded as 3.5 fold, the “functional activity at calcitonin receptors” value is “partial agonist activity” and the “increase in cyclic AMP as percent of the increase produced by human calcitonin” value is “approximately 20%”. In assay [3], the plasma calcium concentration entry was “caused a fall in plasma calcium concentration”, the plasma glucose result was “neither Compound 1 nor Compound 2 increased” and the plasma lactate entry is listed as “neither Compound 1 nor Compound 2 increased”. Further, the plasma calcium levels entry in assay [4] (after infusion of test compound, with subsequent amylin infusion) is recorded as “A fall in plasma calcium levels”. For the same molecule, in assay [4] (setting [12]), the “increase in plasma glucose after amylin administration” value is listed as “smaller increases” and the “increase in plasma lactate after amylin administration” value is given as “smaller increases”. Also, in [4] (intravenous preinfusion of test compound, then rat amylin infusion), the “reversal of the blood pressure lowering effect of amylin (mean arterial pressure)” value is reported as “lack of ability of these compounds to reverse the blood pressure lowering effect of amylin”. The “amylin antagonist activity, reversal of the effect of amylin on insulin-stimulated incorporation of glucose into glycogen” value in the assay with isolated soleus muscle (amylin 100 nM, test compound 1 μM) is “reversed”. The “amylin agonist activity, inhibition of insulin-stimulated incorporation of glucose into glycogen” value in the assay on isolated soleus muscle (test compound 100 nM) is given as “no discernable amylin agonist activity; also recorded: neither Compound 1 (100 nM) nor Compound 2 (100 nM) affected the response to insulin”. Besides, the “inhibition of gastric emptying” value in the assay on gastric emptying in rats was “behaved as potent amylin and calcitonin agonists in inhibition of gastric emptying”. The “affinity for calcitonin receptors compared with amylin receptors” value at calcitonin receptors [2] is recorded as “greater affinity for calcitonin receptors than for amylin receptors”.

“LSTSVLGRLSQELHRLQTYPRTNTGSNTY [Compound 3]”: the concentration for half-maximal inhibition (IC50) at CGRP receptors is > 10000 nM; at amylin receptors it was 37 ± 4.6 nM; at calcitonin receptors [2], 1.45 nM. Also, the “affinity for calcitonin receptors compared with amylin receptors” value at calcitonin receptors [2] was “greater affinity for calcitonin receptors than for amylin receptors”.

B1: [^125I]salmon calcitonin (ligand, UniProt P01263 83-114, looked up)
peptide: CSNLSTCVLGKLSQELHKLQTY(125I)PRTNTGSGTP
modifications: ends and bridges not checked
notes: mature; also called labeled salmon calcitonin
What is called Kd is the equilibrium constant for the complex coming apart. In the case of B1, in assay [5], the Kd was 0.019 nM.

On to LSTCVLGRLSQELHRLQTYPRTNTGSNTY (Synthetic 29-residue peptide) [Compound 1], for which the “EC50 of cyclic AMP accumulation, T47D cells” value in [6] came to 2.2 nM. In assay [7], the “EC50 of adenyl cyclase activity, cells expressing rat calcitonin C1a receptors” value was 0.97 nM. Besides, the concentration for half-maximal inhibition (IC50) in [8] was determined as 160 nM; in [9], 0.22 nM; in assay [11] it was 0.25 nM. Besides, in assay [10], the “fold lower affinity than for the amylin receptors” value is ≥ 300 fold.
